Assay results from patent US8003610B2, “Bradykinin B2 receptor antagonist peptide from amphibian skin” (priority 2003, dated 2011).
Square brackets hold non-standard residues; d marks the D form. Ends that are not written are not given here. pGlu = O=C1CC[C@@H](C(=O)O)N1

How the values were obtained:
[1] = target: autologous receptor (of ornithokinin) cloned from chicken; details: (Tyr^0)-radioiodinated ornithokinin as competing ligand; read-out: affinity; cited from earlier work
[2] = system: recombinantly-expressed receptor (of ornithokinin); details: cited from earlier work
B1-receptor = target: T1, B1-receptor (Oryctolagus cuniculus, UniProt P48748); details: cited from earlier work
T1 construct: in B1-receptor-rich preparations, such as the rabbit aorta; host or cells: rabbit aorta tissue preparation
T1 sequence (P48748 1-352): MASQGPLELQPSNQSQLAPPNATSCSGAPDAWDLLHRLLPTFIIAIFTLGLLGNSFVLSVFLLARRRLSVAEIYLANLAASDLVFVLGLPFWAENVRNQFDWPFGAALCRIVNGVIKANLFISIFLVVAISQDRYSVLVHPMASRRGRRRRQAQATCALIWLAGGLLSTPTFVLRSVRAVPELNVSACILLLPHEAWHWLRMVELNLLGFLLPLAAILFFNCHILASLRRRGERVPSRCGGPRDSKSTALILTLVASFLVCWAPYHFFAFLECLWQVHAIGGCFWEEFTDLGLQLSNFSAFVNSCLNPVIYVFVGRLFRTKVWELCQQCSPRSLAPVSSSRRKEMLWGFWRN

[3] = system: endothelial tube structures on Matrigel matrix plates; test: Matrigel tube formation assay; type: cell-based; details: FIG. 8
Text: FIG. 8 is a graph comparing the ability of kinestatin (▪) and fumagillin (▴) to inhibit the formation of endothelial tube structures on Matrigel matrix plates.

[4] = system: human microvascular endothelial cells (HMEC-1); test: endothelial cell migration into 1 cm wound in cell monolayer; type: cell-based
Method: FIG. 9 is a graph comparing the ability of kinestatin (▪) and fumagillin (▾) to inhibit the migration of human microvascular endothelial cells (HMEC-1) into a wound in a dose- and time-dependent manner
FIG. 10 is a time response curve showing the delay in complete closure of endothelial cell 1 cm wounds in the presence of kinestatin (▪) and non-treated control cells (▴).
Expt. […] Kinestatin prolonged wound closure time by 100% from 7 h (control) to 14 h (treatment) (FIG. 10).

[5] = system: rat tail artery smooth muscle; test: direct relaxation of phenylephrine pre-constricted rat tail artery preparation; details: synthetic replicate, in the effective molar concentration range of bradykinin, FIG. 4A
Method: Male albino Wistar rats (200-250 g) were euthanised by asphyxiation followed by cervical dislocation. The tail artery was prepared as described previously (Chen T et al, Peptides. 2002; 23:1547-1555, Chen T et al, Eur. J. Biochem. 2002; 269:4693-4700, Hirst et al Br. J. Radiol. 1994; 67:795-799). After perfusion of arterial preparations with 1×10^−5M phenylephrine to obtain constriction plateaux, relative relaxation was recorded as described below following applications of reconstituted 100 μl aliquots of HPLC fraction samples (1-240) from B. maxima skin secretion. This was carried out to exclude those fractions (25) containing direct arterial smooth muscle relaxant activity. […] Changes in arterial smooth muscle tone were measured by a pressure transducer system and the percentage relative relaxations induced by bradykinin in the presence of reconstituted fractions were calculated using the MacLab computer package.
Arterial smooth muscle preparations were prepared as described previously and treated with phenylephrine (1×10^−5M) until constriction plateaux were achieved. […] 2) The effect of prior addition of a range of concentrations of kinestatin on the observed activity of subsequently added bradykinin at its maximally effective concentration (10^−6M) was determined. […] During a 20 min perfusion period, changes in arterial pressure were recorded as described previously. […]

bradykinin B2 receptors = target: T2, bradykinin B2 receptors (Rattus norvegicus, UniProt P25023); test: inhibition of bradykinin-induced relaxation in phenylephrine pre-constricted rat tail artery preparation
T2 construct: phenylephrine pre-constricted rat tail artery preparation; from tissue; host or cells: rat tail artery (arterial smooth muscle preparation)
T2 sequence (P25023 1-396): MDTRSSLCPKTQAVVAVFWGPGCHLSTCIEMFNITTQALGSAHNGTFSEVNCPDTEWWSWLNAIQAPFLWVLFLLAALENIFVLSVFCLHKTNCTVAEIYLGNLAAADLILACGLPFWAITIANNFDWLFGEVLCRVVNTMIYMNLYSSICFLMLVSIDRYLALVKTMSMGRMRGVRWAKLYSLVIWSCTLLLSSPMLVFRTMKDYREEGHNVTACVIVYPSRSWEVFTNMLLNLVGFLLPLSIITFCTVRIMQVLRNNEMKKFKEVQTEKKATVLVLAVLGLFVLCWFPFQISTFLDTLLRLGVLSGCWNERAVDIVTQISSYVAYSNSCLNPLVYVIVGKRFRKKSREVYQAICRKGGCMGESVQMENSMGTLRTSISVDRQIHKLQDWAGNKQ
Method: Male albino Wistar rats (200-250 g) were euthanised by asphyxiation followed by cervical dislocation. The tail artery was prepared as described previously (Chen T et al, Peptides. 2002; 23:1547-1555, Chen T et al, Eur. J. Biochem. 2002; 269:4693-4700, Hirst et al Br. J. Radiol. 1994; 67:795-799). After perfusion of arterial preparations with 1×10^−5M phenylephrine to obtain constriction plateaux, relative relaxation was recorded as described below following applications of reconstituted 100 μl aliquots of HPLC fraction samples (1-240) from B. maxima skin secretion. […] The preparations were perfused as before with phenylephrine (1×10^−5M) until constriction plateaux were obtained. Following this, combinations of phenylephrine (1×10^−5M) and reconstituted non-myoactive fractions were perfused through individual preparations for 20 min. Immediately after this, the perfusate was replaced by a combination of phenylephrine (1×10^−5M), bradykinin (1×10^−6M) and reconstituted individual fractions. Changes in arterial smooth muscle tone were measured by a pressure transducer system and the percentage relative relaxations induced by bradykinin in the presence of reconstituted fractions were calculated using the MacLab computer package.
Arterial smooth muscle preparations were prepared as described previously and treated with phenylephrine (1×10^−5M) until constriction plateaux were achieved. Following this a series of experiments were performed to address the pharmacological characterization of the novel peptide, kinestatin. 1) Separate dose response curves were constructed for bradykinin and kinestatin using concentrations of both peptides in the range of 10^−11 to 10^−5M. […] The preparations were prepared as described before. […] Following this, phenylephrine (1×10^−5M) was added to the antagonist solution and perfused for 10 min to develop contraction of the arterial smooth muscle. On obtaining stable plateaux of constriction, the perfusate was replaced by another containing phenylephrine, antagonist and bradykinin (1×10^−6M). During a 20 min perfusion period, changes in arterial pressure were recorded as described previously. In a second similar series of experiments, kinestatin (1×10^−8M) was added to each of the specific bradykinin receptor sub-type antagonist solutions prior to the procedure described above. Data were analysed by computer using Students t test available on the Graph Pad Prism™ programme.

[6] = system: human microvascular endothelial cell line (HMEC-1); test: proliferation of endothelial cell line; type: cell-based; details: FIG. 11
Text: FIG. 11 is a graph comparing the effect of control (▪), kinestsin (Q-9-R-(-7) (▴) and fumagillin (▾) on the proliferation of the human microvascular endothelial cell line (HMEC-1).

Molecule: RPPGFTPLR [ornithokinin]
- Kd [1]: 4.7 nM

Molecule: Arg-Arg-Pro-Hyp-Gly-Thi-Ser-Tic-Oic-Arg [HOE-140]
- function at receptor [2]: partial agonist

Molecule: RPPGFSPLR [Leu^8-bradykinin, bradykinin analogue, found in pickerel frog skin]
- antagonism of bradykinin and des-Arg^9 bradykinin (B1-receptor; B1-receptor-rich preparations, rabbit aorta): potent antagonist
- bradykinin agonist activity (B1-receptor; previous pharmacological studies): devoid of bradykinin agonist activity

Molecule: pGlu-Ile-Pro-Gly-Leu-Gly-Pro-Leu-Arg.NH2 ([pGlu]IPGLGPLR-NH2; SMILES CC[C@H](C)[C@H](NC(=O)[C@@H]1CCC(=O)N1)C(=O)N1CCC[C@H]1C(=O)NCC(=O)N[C@@H](CC(C)C)C(=O)NCC(=O)N1CCC[C@H]1C(=O)N[C@@H](CC(C)C)C(=O)N[C@@H](CCCNC(=N)N)C(N)=O; listed as Bombina maxima) [kinestatin, bradykinin B2 receptor antagonist nonapeptide from skin secretion of Bombina maxima; synthetic replicate tested]
- effect on tube formation [3]: inhibitory effect
- maximal inhibitory effect on migration ([4]; FIG. 9): same maximal inhibitory effect
- potency relative to fumagillin ([4]; FIG. 9): more potent on a molar basis
- endothelial cell migration ([4]; time to half closure of 1 cm wide wound): inhibition in endothelial cell migration
- wound closure time ([4]; treatment, FIG. 10): 14 h
- prolongation of wound closure time ([4]; versus control, FIG. 10): 100%
- myorelaxant activity [5]: devoid of myorelaxant activity
- potency as bradykinin antagonist relative to Leu^8 bradykinin (bradykinin B2 receptors): ~10 ×
- inhibition of bradykinin-induced relaxation in HOE 140-treated preparations (bradykinin B2 receptors; kinestatin 1×10^−8M added, HOE 140 3×10^−7M, p=0.0015, n=6): significant inhibition
- inhibition of bradykinin-induced relaxation in des Arg HOE 140-treated preparations (bradykinin B2 receptors; kinestatin 1×10^−8M added, des Arg HOE 140 3×10^−7M, p=0.033, n=6): significant inhibition
- effect on bradykinin-induced relaxation dose response curve (bradykinin B2 receptors; kinestatin at 1×10^−8M, FIG. 4C): Virtual total abolition
- maximally inhibitory concentration (bradykinin B2 receptors; prior addition, bradykinin dose response): 10^−8 M
- receptor mediating the inhibition (bradykinin B2 receptors; rat tail arterial smooth muscle): antagonism at B2 receptors
- block of maximal bradykinin relaxing activity (bradykinin B2 receptors; ten nanomolar kinestatin, one micromolar bradykinin): almost totally blocked
- mechanism of inhibition (bradykinin B2 receptors; within this concentration range): non-competitive mechanism
- cell proliferation [6]: profound effects on inhibition of cell proliferation

Molecule: CO[C@@H]1[C@H](OC(=O)/C=C/C=C/C=C/C=C/C(=O)O)CC[C@]2(CO2)[C@H]1[C@@]1(C)O[C@@H]1CC=C(C)C [fumagillin, reference compound]
- effect on tube formation [3]: inhibitory effect
- maximal inhibitory effect on migration ([4]; FIG. 9): same maximal inhibitory effect
- cell proliferation [6]: profound effects on inhibition of cell proliferation
